From PubChem BioAssay AID192 (DTP/NCI, 2004)
“And” between values parts separate entries of the source, which are not always exact repeats. Equal values may be shown once. Toxic doses and inconclusive results are not listed.

Tested on: BDF1 mice, B16 melanoma ip, median survival T/C
Assay: NCI In Vivo Anticancer Drug Screen. Data for tumor model B16 Melanoma (intraperitoneal) in B6D2F1 (BDF1) mice
Conditions: endpoint: median survival time, higher = longer survival
How it was run: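 Each result divides a survival or tumor-size measurement in the compound-treated group by the same measurement in the vehicle group.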

[1] = dose: 1.0 mg/kg/injection, schedule: Q01DX009 (ip), vehicle: saline
[2] = dose: 2.5 mg/kg/injection, schedule: Q01DX009 (ip), vehicle: saline with Tween-80
[3] = dose: 5.0 mg/kg/injection, schedule: Q01DX009 (ip), vehicle: saline with Tween-80
[4] = dose: 12.5 mg/kg/injection, schedule: Q01DX009 (ip), vehicle: saline with Tween-80
[5] = dose: 25.0 mg/kg/injection, schedule: Q01DX009 (ip), vehicle: saline with Tween-80
[6] = dose: 50.0 mg/kg/injection, schedule: Q01DX009 (ip), vehicle: saline with Tween-80
[7] = dose: 12.5 mg/kg/injection, schedule: Q01DX009 (ip), vehicle: saline
[8] = dose: 50.0 mg/kg/injection, schedule: Q01DX009 (ip), vehicle: saline
[9] = dose: 100.0 mg/kg/injection, schedule: Q01DX009 (ip), vehicle: saline
[10] = dose: 100.0 mg/kg/injection, schedule: Q01DX009 (ip), vehicle: saline with Tween-80
[11] = dose: 200.0 mg/kg/injection, schedule: Q01DX009 (ip), vehicle: saline with Tween-80
[12] = dose: 400.0 mg/kg/injection, schedule: Q01DX009 (ip), vehicle: saline with Tween-80
[13] = dose: 25.0 mg/kg/injection, schedule: Q01DX009 (ip), vehicle: saline
[14] = dose: 25.0 mg/kg/injection, schedule: Q01DX009 (ip), vehicle: Klucel (hydroxypropylcellulose) (HPC)

In the case of `c1ccc([P+](c2ccccc2)(c2ccccc2)c2ccccc2)cc1`, the T/C (dose: 0.13 mg/kg/injection, schedule: Q01DX009 (ip), vehicle: saline) is reported as 102 % of control, the T/C (dose: 0.2 mg/kg/injection, schedule: Q01DX009 (ip), vehicle: saline) is reported as 102 % of control and the T/C (dose: 0.3 mg/kg/injection, schedule: Q01DX009 (ip), vehicle: saline) is reported as 102 % of control. For the same compound, the T/C (dose: 0.44 mg/kg/injection, schedule: Q01DX009 (ip), vehicle: saline) was 113 % of control, the T/C (dose: 0.63 mg/kg/injection, schedule: Q04DX003 (ip), vehicle: saline) was 100 % of control and the T/C (dose: 0.66 mg/kg/injection, schedule: Q01DX009 (ip), vehicle: saline) was 110 % of control. For the same compound, the T/C [1] was 113 % of control, the T/C (dose: 1.25 mg/kg/injection, schedule: Q01DX009 (ip), vehicle: saline with Tween-80) was 97 % of control and the T/C (dose: 1.25 mg/kg/injection, schedule: Q04DX003 (ip), vehicle: saline) was 100 % of control. The T/C (dose: 1.5 mg/kg/injection, schedule: Q01DX009 (ip), vehicle: saline) was 113 % of control, the T/C [2] was 104 % of control and the T/C (dose: 2.5 mg/kg/injection, schedule: Q04DX003 (ip), vehicle: saline) was 102 % of control. For the same compound, the T/C [3] was 111 % of control and the T/C (dose: 5.0 mg/kg/injection, schedule: Q04DX003 (ip), vehicle: saline) was 89 % of control.

`CCCn1cnc2c(=S)nc[nH]c21` was tested, and the T/C [4] was 120 % of control, the T/C [5] was 116 % of control and the T/C [6] was 106 % of control.

With `OCC1OC(n2cnc3c2NC=NC[C@H]3O)CC1O` (some centres undefined) the T/C (dose: 0.06 mg/kg/injection, schedule: Q01DX009 (ip), vehicle: saline) was 109 % of control, the T/C (dose: 0.12 mg/kg/injection, schedule: Q01DX009 (ip), vehicle: saline) was 104 % of control and the T/C (dose: 0.25 mg/kg/injection, schedule: Q01DX009 (ip), vehicle: saline) was 101 % of control and 103 % of control. For the same compound, the T/C (dose: 0.5 mg/kg/injection, schedule: Q01DX009 (ip), vehicle: saline) was 102 % of control and 106 % of control, the T/C [1] was 90 % of control and 98 % of control and the T/C (dose: 2.0 mg/kg/injection, schedule: Q01DX009 (ip), vehicle: saline) was 86 % of control.

For `Nc1ncnc2c1ncn2C1OC(COP(=O)(O)O)C(O)C1O` (centres undefined), the T/C [7] was 124 % of control, the T/C (dose: 12.5 mg/kg/injection, schedule: Q01DX009 (ip), vehicle: water) was 112 % of control and the T/C (dose: 20.0 mg/kg/injection, schedule: Q01DX009 (ip), vehicle: water) was 113 % of control. For the same compound, the T/C (dose: 25.0 mg/kg/injection, schedule: Q01DX009 (ip), vehicle: water) was 108 % of control, the T/C (dose: 40.0 mg/kg/injection, schedule: Q01DX009 (ip), vehicle: water) was 110 % of control and the T/C [8] was 116 % of control. The T/C (dose: 50.0 mg/kg/injection, schedule: Q01DX009 (ip), vehicle: water) was 108 % of control, the T/C (dose: 80.0 mg/kg/injection, schedule: Q01DX009 (ip), vehicle: water) was 104 % of control and the T/C [9] was 121 % of control. For the same compound, the T/C (dose: 100.0 mg/kg/injection, schedule: Q01DX009 (ip), vehicle: water) was 118 % of control, the T/C (dose: 160.0 mg/kg/injection, schedule: Q01DX009 (ip), vehicle: water) was 113 % of control and the T/C (dose: 200.0 mg/kg/injection, schedule: Q01DX009 (ip), vehicle: water) was 118 % of control. The T/C (dose: 320.0 mg/kg/injection, schedule: Q01DX009 (ip), vehicle: water) was 124 % of control and the T/C (dose: 400.0 mg/kg/injection, schedule: Q01DX009 (ip), vehicle: water) was 117 % of control.

For `CCc1cc(C)cc(OC(=O)Nc2cccc(Cl)c2)c1`, the T/C [10] was 90 % of control, the T/C [11] was 92 % of control and the T/C [12] was 86 % of control.

`O=C(O)CC(NCc1ccccc1)C(=O)O` (centres undefined) was tested, and the T/C [10] was 97 % of control, the T/C [11] was 102 % of control and the T/C [12] was 100 % of control.

In the case of `[Cu+2].[NH-]C1(C(=O)O)CCCC1.[NH-]C1(C(=O)O)CCCC1`, the T/C [2] is reported as 93 % of control, the T/C [3] is reported as 93 % of control and the T/C (dose: 10.0 mg/kg/injection, schedule: Q01DX009 (ip), vehicle: saline with Tween-80) is reported as 93 % of control.

In the case of `CCOC(CCC#N)c1ccc(Cl)cc1` (centres undefined), the T/C [10] is reported as 98 % of control, the T/C [11] is reported as 96 % of control and the T/C [12] is reported as 97 % of control.

For `CCNCc1cc(Nc2nc(NC3CCC(N(C)C)CC3)c3ccccc3n2)ccc1OC` (centres undefined), the T/C (dose: 2.5 mg/kg/injection, schedule: Q01DX009 (ip), vehicle: saline) was 105 % of control, the T/C (dose: 5.0 mg/kg/injection, schedule: Q01DX009 (ip), vehicle: saline) was 103 % of control and the T/C (dose: 10.0 mg/kg/injection, schedule: Q01DX009 (ip), vehicle: saline) was 114 % of control. The T/C (dose: 20.0 mg/kg/injection, schedule: Q01DX009 (ip), vehicle: saline) was 122 % of control and the T/C (dose: 40.0 mg/kg/injection, schedule: Q01DX009 (ip), vehicle: saline) was 112 % of control.

`CC1NCCOC1c1ccccc1` (centres undefined) was tested, and the T/C (dose: 3.12 mg/kg/injection, schedule: Q01DX009 (ip), vehicle: saline) was 100 % of control, the T/C (dose: 6.25 mg/kg/injection, schedule: Q01DX009 (ip), vehicle: saline) was 97 % of control and the T/C [7] was 104 % of control. For the same compound, the T/C [13] was 90 % of control and 124 % of control, the T/C [8] was 90 % of control and 113 % of control and the T/C [9] was 111 % of control.

`O=c1ccc2ccccc2o1` was tested, and the T/C [14] was 100 % of control, the T/C (dose: 50.0 mg/kg/injection, schedule: Q01DX009 (ip), vehicle: Klucel (hydroxypropylcellulose) (HPC)) was 105 % of control and the T/C (dose: 100.0 mg/kg/injection, schedule: Q01DX009 (ip), vehicle: Klucel (hydroxypropylcellulose) (HPC)) was 111 % of control. The T/C (dose: 200.0 mg/kg/injection, schedule: Q01DX009 (ip), vehicle: Klucel (hydroxypropylcellulose) (HPC)) was 101 % of control.

For `COCC(=O)CC(C)=O`, the T/C (dose: 75.0 mg/kg/injection, schedule: Q01DX009 (ip), vehicle: Klucel (hydroxypropylcellulose) (HPC)) was 122 % of control, the T/C (dose: 150.0 mg/kg/injection, schedule: Q01DX009 (ip), vehicle: Klucel (hydroxypropylcellulose) (HPC)) was 113 % of control and the T/C (dose: 300.0 mg/kg/injection, schedule: Q01DX009 (ip), vehicle: Klucel (hydroxypropylcellulose) (HPC)) was 105 % of control.

With `O=C1C(=O)c2ccccc2C(O)=C1CCCc1ccc(C2CCCCCC2)cc1` the T/C [5] was 123 % of control and the T/C [6] was 114 % of control.

In the case of `CO[C@H](/C(C)=C/C=C/C(C)=C/c1coc(C)n1)[C@H](C)[C@H]1C[C@@H](O)[C@@]2(C)O[C@H]2/C=C/[C@@H](C)[C@@H]2C[C@@H](CC(=O)O2)C[C@H]2O[C@@H]2C(=O)O1`, the T/C (dose: 0.4 mg/kg/injection, schedule: Q01DX009 (ip), vehicle: Klucel (hydroxypropylcellulose) (HPC)) is reported as 153 % of control and the T/C (dose: 0.5 mg/kg/injection, schedule: Q01DX009 (sc), vehicle: Klucel (hydroxypropylcellulose) (HPC)) is reported as 181 % of control.

For `CCCCCCCCCCCCCCCCC(C(=O)O)C(O)(CC(=O)O)C(=O)O` (centres undefined), the T/C (dose: 12.5 mg/kg/injection, schedule: Q01DX009 (ip), vehicle: Klucel (hydroxypropylcellulose) (HPC)) was 101 % of control and the T/C [14] was 90 % of control.

In the case of `Cc1ccc(C(=O)CCl)c(C)c1`, the T/C [4] is reported as 90 % of control, the T/C [5] is reported as 92 % of control and the T/C [6] is reported as 95 % of control.

In the case of `OC(CBr)C(O)C(O)C(O)CBr` (centres undefined), the T/C [7] is reported as 110 % of control, the T/C (dose: 20.0 mg/kg/injection, schedule: Q01DX009 (ip), vehicle: saline with Tween-80) is reported as 107 % of control and the T/C [13] is reported as 107 % of control. For the same compound, the T/C (dose: 25.9 mg/kg/injection, schedule: Q01DX009 (ip), vehicle: saline with Tween-80) was 109 % of control, the T/C (dose: 40.0 mg/kg/injection, schedule: Q01DX009 (ip), vehicle: saline with Tween-80) was 100 % of control and the T/C (dose: 43.2 mg/kg/injection, schedule: Q01DX009 (ip), vehicle: saline with Tween-80) was 105 % of control. For the same compound, the T/C [8] was 120 % of control and 107 % of control, the T/C (dose: 72.0 mg/kg/injection, schedule: Q01DX009 (ip), vehicle: saline with Tween-80) was 116 % of control and the T/C (dose: 80.0 mg/kg/injection, schedule: Q01DX009 (ip), vehicle: saline with Tween-80) was 108 % of control. The T/C [10] was 103 % of control and 120 % of control, the T/C [9] was 107 % of control and the T/C (dose: 120.0 mg/kg/injection, schedule: Q01DX009 (ip), vehicle: saline with Tween-80) was 101 % of control. For the same compound, the T/C (dose: 160.0 mg/kg/injection, schedule: Q01DX009 (ip), vehicle: saline with Tween-80) was 115 % of control, the T/C [11] was 113 % of control and 114 % of control and the T/C (dose: 200.0 mg/kg/injection, schedule: Q01DX009 (ip), vehicle: saline) was 117 % of control and 110 % of control. For the same compound, the T/C (dose: 300.0 mg/kg/injection, schedule: Q01DX009 (ip), vehicle: saline with Tween-80) was 82 % of control, the T/C (dose: 555.8 mg/kg/injection, schedule: Q01DX009 (ip), vehicle: saline with Tween-80) was 55 % of control and the T/C (dose: 800.0 mg/kg/injection, schedule: Q01DX009 (ip), vehicle: saline with Tween-80) was 112 % of control.
